Like-named read-outs stand apart in the source and are kept apart here.
Legend:
[1] = target: T1, HSV-1 helicase-primase (Human herpesvirus 1, UniProt P10189+P10236); assay: HSV-1 DNA-dependent ATPase assay (inhibition of HSV-1 helicase-primase); assay type: biochemical
T1 construct: made in house; host or cells: Sf21 insect cells triply infected with recombinant baculoviruses (UL5, UL8, UL52)
Method in brief: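 ATP hydrolysis was measured as inorganic phosphate (malachite green/molybdate, 650 nm) after 20 min at 34°. Reaction: 3 μg/mL purified Sf21-expressed UL5/UL8/UL52 helicase-primase, 25 μM single-stranded M13 DNA hybridized to 68-mer, 4 mM ATP, pH 7.5 HEPES buffer, 3.3% DMSO. Net absorbance change with and without inhibitor gave DNA-dependent ATPase activity.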

[2] = tested on: HCMV (strain AD169); assay: Inhibition of HCMV replication, plaque reduction assay (PRA, Hs-68 cells); assay type: cell-based, Human Cytomegalovirus (HCMV); settings: read-out: PRA CMV EC50
Method in brief: (§1)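 Hs-68 monolayers (80–90% confluent) were infected with ~50 PFU HCMV AD169 for 2 h at 37°, then given compound in DMEM/5% inactivated FBS, refreshed after 4 days and kept 4 more days. Plaques were counted after formaldehyde fixation and crystal violet staining. EC50 derives from percent plaque reduction versus untreated wells.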

[3] = as above; assay type: cell-based, Human Cytomegalovirus (HCMV); settings: human, Group 1 Table 5 entries, read-out: Cytotoxic at this concentration (footnote *, PRA CMV)
Method in brief: as §1

[4] = Human betaherpesvirus 5, AD169, Hs68, Group 2 Table 1 entries
[5] = Human betaherpesvirus 5, AD169, Hs68, Group 1 Table 6 entries
[6] = Human betaherpesvirus 5, AD169, Hs68, Group 1 Table 5 entries

T1 sequence (P10192 whole entry): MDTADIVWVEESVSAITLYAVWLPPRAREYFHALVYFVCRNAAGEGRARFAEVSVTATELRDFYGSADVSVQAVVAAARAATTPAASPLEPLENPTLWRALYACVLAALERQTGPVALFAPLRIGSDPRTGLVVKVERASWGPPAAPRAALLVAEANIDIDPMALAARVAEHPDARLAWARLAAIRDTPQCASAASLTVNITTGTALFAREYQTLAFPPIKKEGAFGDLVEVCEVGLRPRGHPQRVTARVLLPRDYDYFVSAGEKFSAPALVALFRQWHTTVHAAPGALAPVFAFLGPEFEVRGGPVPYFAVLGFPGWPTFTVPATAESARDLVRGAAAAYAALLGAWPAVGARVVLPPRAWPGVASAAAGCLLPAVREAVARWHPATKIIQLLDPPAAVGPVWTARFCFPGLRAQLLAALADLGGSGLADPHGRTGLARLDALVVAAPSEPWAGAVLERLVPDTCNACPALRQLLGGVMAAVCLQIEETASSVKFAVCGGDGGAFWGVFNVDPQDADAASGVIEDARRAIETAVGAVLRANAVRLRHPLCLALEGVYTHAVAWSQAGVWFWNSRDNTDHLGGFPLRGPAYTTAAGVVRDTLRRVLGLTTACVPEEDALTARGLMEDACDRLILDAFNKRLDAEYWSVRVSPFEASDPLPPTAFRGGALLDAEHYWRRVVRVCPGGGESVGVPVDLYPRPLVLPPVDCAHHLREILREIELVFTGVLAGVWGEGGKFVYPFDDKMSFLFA
T1 sequence (P10236 whole entry): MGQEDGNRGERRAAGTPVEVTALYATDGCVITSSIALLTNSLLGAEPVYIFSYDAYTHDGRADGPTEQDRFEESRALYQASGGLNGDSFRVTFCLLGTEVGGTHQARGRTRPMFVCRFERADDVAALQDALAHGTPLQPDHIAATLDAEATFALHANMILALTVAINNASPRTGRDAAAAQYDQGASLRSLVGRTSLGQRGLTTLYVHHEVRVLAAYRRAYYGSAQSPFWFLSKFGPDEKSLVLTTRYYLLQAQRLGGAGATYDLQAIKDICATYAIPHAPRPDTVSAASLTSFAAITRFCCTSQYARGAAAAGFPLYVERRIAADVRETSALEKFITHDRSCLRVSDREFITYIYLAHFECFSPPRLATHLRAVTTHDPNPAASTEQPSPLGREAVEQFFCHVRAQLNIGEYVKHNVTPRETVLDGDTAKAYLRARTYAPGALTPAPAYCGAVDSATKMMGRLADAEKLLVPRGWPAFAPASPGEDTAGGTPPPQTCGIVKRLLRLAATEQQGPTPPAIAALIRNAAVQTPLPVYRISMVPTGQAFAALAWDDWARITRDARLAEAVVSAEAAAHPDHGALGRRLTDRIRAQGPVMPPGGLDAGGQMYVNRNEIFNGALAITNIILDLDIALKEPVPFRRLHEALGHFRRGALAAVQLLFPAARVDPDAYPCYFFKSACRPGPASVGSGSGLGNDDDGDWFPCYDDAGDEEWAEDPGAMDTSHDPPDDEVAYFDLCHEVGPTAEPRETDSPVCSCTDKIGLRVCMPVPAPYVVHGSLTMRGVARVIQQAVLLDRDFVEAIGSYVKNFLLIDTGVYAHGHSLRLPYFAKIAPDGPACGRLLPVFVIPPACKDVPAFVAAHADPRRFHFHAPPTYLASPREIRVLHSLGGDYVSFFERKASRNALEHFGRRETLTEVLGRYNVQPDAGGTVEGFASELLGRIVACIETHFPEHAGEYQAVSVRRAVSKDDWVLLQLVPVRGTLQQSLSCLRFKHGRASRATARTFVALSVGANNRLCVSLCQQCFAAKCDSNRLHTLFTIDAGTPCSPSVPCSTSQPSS
T1 sequence (P10189 whole entry): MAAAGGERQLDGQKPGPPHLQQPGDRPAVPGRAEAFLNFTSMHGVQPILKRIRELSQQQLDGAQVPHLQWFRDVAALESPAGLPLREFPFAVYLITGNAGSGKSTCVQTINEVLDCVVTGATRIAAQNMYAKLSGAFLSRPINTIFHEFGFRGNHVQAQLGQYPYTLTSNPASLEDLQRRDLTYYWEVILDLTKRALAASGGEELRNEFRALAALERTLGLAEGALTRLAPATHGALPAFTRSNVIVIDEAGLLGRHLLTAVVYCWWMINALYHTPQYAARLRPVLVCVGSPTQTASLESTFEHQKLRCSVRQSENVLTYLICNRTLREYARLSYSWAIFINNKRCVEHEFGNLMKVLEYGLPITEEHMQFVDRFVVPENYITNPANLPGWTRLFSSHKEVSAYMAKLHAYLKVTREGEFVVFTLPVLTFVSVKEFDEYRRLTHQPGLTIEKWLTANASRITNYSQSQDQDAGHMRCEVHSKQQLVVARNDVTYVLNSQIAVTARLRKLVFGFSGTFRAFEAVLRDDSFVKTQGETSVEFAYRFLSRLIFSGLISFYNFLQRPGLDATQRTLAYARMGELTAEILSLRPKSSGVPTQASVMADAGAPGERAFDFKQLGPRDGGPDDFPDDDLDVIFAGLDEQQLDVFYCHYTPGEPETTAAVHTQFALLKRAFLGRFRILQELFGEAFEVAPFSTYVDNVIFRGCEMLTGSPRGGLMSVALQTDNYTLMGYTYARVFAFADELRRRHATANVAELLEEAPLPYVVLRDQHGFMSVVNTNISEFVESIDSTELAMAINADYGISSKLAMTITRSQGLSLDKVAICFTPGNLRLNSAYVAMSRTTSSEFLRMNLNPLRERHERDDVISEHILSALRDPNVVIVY

Row | Compound | IC50 ([1]; Group 2 Table 1 entries) [µM] | EC50 [2, 4] [µM] | IC50 ([1]; Group 1 Table 6 entries) [µM] | EC50 [2, 5] [µM] | other results
1 | CCCCN(CCCC)C(=O)C(=O)Nc1ccc(-c2csc(N)n2)cc1 [Example 1, N-{4-(2-Amino-4-thiazolyl)phenyl}-N',N'-dibutylethanediamide] | – | – | – | – | IC50 ([1]; Group 2 Table 2 entries (A = C(O))): 7 µM; EC50 ([2]; Human betaherpesvirus 5, AD169, Hs68, Group 2 Table 2 entries): > 4 µM
2 | CCCCN(CCCC)C(=O)Nc1ccc(-c2csc(N)n2)cc1 [Example 1, N-{4-(2-Amino-4-thiazolyl)phenyl}-N,N-dibutylurea] | 4.2 | 37 | – | – | –
3 | Nc1nc(-c2ccc(NC(=O)[C@@H]3CCC(=O)N3Cc3ccccc3)cc2)cs1 [Example 2] | – | – | 6.2 | 50 | –
4 | Nc1nc(-c2ccc(NC(=O)[C@H]3CCC(=O)N3CC3CCCCC3)cc2)cs1 [Example 3] | – | – | 6.2 | 45 | –
5 | CN(CCc1ccccn1)C(=O)Nc1ccc(-c2csc(N)n2)cc1 [Example 4] | 3.7 | > 144 | – | – | –
6 | Nc1nc(-c2ccc(NC(=O)[C@@H]3CCCN3C(=O)c3ccccc3)cc2)cs1 [Example 5] | – | – | 1.6 | > 89 | –
7 | Nc1nc(-c2ccc(NC(=O)[C@@H]3CCCN3C(=O)C3CCCCC3)cc2)cs1 [Example 6] | – | – | 0.052 | 22 | –
8 | CC(C)(C)OC(=O)N1CCC[C@@H]1C(=O)Nc1ccc(-c2csc(N)n2)cc1 [Example 8] | – | – | 7.5 | > 83 | –
9 | Nc1nc(-c2ccc(NC(=O)[C@H]3CCCN3C(=O)c3ccccc3)cc2)cs1 [Example 9] | – | – | 1.6 | > 88 | –
10 | CN(C(=O)OC(C)(C)C)[C@@H](Cc1ccccc1)C(=O)Nc1ccc(-c2csc(N)n2)cc1 [Example 10] | – | – | – | – | IC50 ([1]; Group 1 Table 5 entries): 0.09 µM; EC50 [2, 6]: 12 µM
11 | Nc1nc(-c2ccc(NC(=O)[C@H]3CCCN3C(=O)C3CCCCC3)cc2)cs1 [Example 10] | – | – | 0.13 | 48 | –
12 | CCCC(CCC)NC(=O)Nc1ccc(-c2csc(N)n2)cc1 [Example 11] | 17 | 13 | – | – | –
13 | Nc1nc(-c2ccc(NC(=O)[C@H](Cc3ccccc3)N(Cc3ccccc3)C(=O)C3CCCCC3)cc2)cs1 [Example 11] | – | – | – | – | IC50 ([1]; Group 1 Table 5 entries): 0.4 µM; EC50 [2, 6]: 8 µM
14 | CC(C)(C)NC(=O)Nc1ccc(-c2csc(N)n2)cc1 [Example 12] | 20 | > 32 | – | – | –
15 | CN(CCc1ccccn1)C(=O)Nc1ccc(-c2csc(NC(=O)OC(C)(C)C)n2)cc1 [Example 14] | > 100 | 2 | – | – | –
16 | CCCCN(CCCC)C(=O)Nc1ccc(-c2csc(NC(=O)OC(C)(C)C)n2)cc1 [Example 15] | > 100 | 1.1 | – | – | –
17 | CC(C)(C)CC(=O)N[C@@H](Cc1ccccc1)C(=O)Nc1ccc(-c2csc(N)n2)cc1 [Example 19] | – | – | – | – | IC50 ([1]; Group 1 Table 5 entries): 0.051 µM; EC50 [2, 6]: 21 µM; MCC at 192 h [3]: 21 µM
18 | Nc1nc(-c2ccc(NC(=O)[C@H](Cc3ccccc3)NS(=O)(=O)N3CCOCC3)cc2)cs1 [Example 25] | – | – | – | – | IC50 ([1]; Group 1 Table 5 entries): 0.17 µM; EC50 [2, 6]: 55 µM

Source: patent US6288091A, “Antiherpes virus compounds and methods for their preparation and use” (Boehringer Ingelheim Ltd., priority 1999, dated 2001)
